Measured values from patent publication US20180325914A1, “INCREASING STORAGE OF VITAMIN A, VITAMIN D AND/OR LIPIDS” (Salk Institute for Biological Studies, priority 2014, published 2018).

System: pro-fibrotic gene expression (COL1A1) in LX-2 cells
Assay: qRT-PCR of pro-fibrotic gene expression in LX-2 cells
Conditions: 500 nM, 16 hr, equimolar doses, absence or presence of TGFβ1 (5 ng/ml), compared with JQ1

SMILES: COc1cc2c(cc1-c1c(C)noc1C)ncc1[nH]c(=O)n([C@H](C)c3ccccn3)c12 [I-BET-151]
- inhibitory effects on the expression of a wide range of pro-fibrotic genes: comparable inhibitory effects to JQ1

SMILES: COc1ccccc1S(=O)(=O)Nc1ccc2c(c1)CN(C)C(=O)N2 [PFI-1]
- inhibitory effects on the expression of a wide range of pro-fibrotic genes: comparable inhibitory effects to JQ1
